Measurements published in patent publication US11964953B2, “Substituted aminothiazoles as DGKzeta inhibitors for immune activation” (Bayer Aktiengesellschaft, priority 2020, dated 2024).

Biological target: human DGKζ (Homo sapiens (Human), UniProt Q13574)
Assay: Human DGKζ kinase activity inhibition assay (ADP-Glo)
Format: biochemical
Details: in vitro human DGKζ kinase activity inhibition assay; read-out: IC50
Procedure: Human DGKζ Kinase Activity Inhibition Assay. Human diacylglycerol kinase zeta (DGKζ) inhibitory activity of compounds of the present invention was quantified employing the human DGKζ kinase activity assay as described in the following paragraphs. In essence, the enzyme activity was measured by quantification of the adenosine-di-phosphate (ADP) generated as a co-product of the enzyme reaction via the “ADP-Glo™ Kinase Assay” kit from the company Promega. This detection system works as follows: In a first step the adenosine-tri-phosphate (ATP) not consumed in the kinase reaction is quantitatively converted to cyclic adenosine-mono-phosphate (cAMP) employing an adenylate cyclase (“ADP-Glo-reagent”), then the adenylate cyclase is stopped and the ADP generated in the kinase reaction is converted to ATP, which subsequently generates in a luciferase-based reaction a glow-luminescence signal (“Kinase Detection Reagent”). C-terminally FLAG-tagged, recombinant full-length human DGKζ (in house expressed in baculovirus infected insect cells, purified using anti-Flag pulldown and size exclusion chromatography) was used as enzyme. As an alternative, commercially available enzyme by Carnabio can be used. […] Subsequently, 22.55 volumes of a 510 mM solution of octyl-β-D-glucopyranoside (Sigma-Aldrich, Cat. #O8001-10G) in 50 mM MOPS buffer (pH 7.4) were added, and the mixture was sonicated in an ultrasonic bath for 20 s. […] Viewlux™ from Perkin-Elmer). The amount of emitted light was taken as a measure for the amount of ADP generated and thereby for the activity of the DGKζ.

human DGKζ, sequence (Q13574 other isoform, or with tags, fused parts or gaps): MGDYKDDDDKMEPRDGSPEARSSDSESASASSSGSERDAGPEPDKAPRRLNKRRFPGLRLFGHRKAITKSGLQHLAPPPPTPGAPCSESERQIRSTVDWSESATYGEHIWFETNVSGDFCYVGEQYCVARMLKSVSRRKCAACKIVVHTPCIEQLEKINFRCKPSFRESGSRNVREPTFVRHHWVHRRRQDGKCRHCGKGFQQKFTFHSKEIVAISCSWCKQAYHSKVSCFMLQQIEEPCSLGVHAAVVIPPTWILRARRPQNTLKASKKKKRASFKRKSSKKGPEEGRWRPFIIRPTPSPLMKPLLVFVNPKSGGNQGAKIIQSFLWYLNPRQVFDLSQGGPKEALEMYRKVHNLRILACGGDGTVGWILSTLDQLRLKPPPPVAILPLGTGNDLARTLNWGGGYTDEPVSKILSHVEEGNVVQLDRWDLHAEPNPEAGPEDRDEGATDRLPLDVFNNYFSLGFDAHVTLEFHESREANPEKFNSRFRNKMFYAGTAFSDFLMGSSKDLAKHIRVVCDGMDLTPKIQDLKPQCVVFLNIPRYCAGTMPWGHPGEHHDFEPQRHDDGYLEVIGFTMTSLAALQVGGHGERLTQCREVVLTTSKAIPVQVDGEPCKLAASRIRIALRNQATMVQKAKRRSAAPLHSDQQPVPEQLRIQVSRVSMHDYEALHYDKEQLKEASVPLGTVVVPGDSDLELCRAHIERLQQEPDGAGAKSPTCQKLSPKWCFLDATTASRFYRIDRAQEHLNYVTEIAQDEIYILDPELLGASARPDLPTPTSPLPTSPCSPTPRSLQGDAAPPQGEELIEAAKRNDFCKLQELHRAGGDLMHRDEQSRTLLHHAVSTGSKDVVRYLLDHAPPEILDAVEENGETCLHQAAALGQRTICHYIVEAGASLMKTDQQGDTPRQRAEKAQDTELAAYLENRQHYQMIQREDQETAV

SMILES	IC50 [µM]
COc1ccc(C(=O)c2sc(N(c3ccc(OC(F)(F)F)c(Cl)c3)C(C)C(N)=O)nc2N)cc1 (racemic) [Example 222, rac-2-[N-[4-amino-5-(4-methoxybenzoyl)thiazol-2-yl]-3-chloro-4-(trifluoromethoxy)anilino]propanamide]	0.108
CC(C(N)=O)N(c1ccc(OC(F)F)c(F)c1)c1nc(N)c(C(=O)c2ccncc2)s1 (racemic) [Example 208, rac-2-[N-[4-amino-5-(pyridine-4-carbonyl)thiazol-2-yl]-4-(difluoromethoxy)-3-fluoro-anilino]propanamide]	0.672
COc1ccc(N(c2nc(N)c(C(=O)c3ccc(F)cc3)s2)C(C)C(N)=O)cc1 (racemic) [Example 18, rac-2-(N-[4-amino-5-(4-fluorobenzoyl)thiazol-2-yl]-4-methoxy-anilino)propanamide]	0.207
CC(C(N)=O)N(c1ccc(F)cc1)c1nc(N)c(C(=O)c2ccc(C(F)(F)F)nc2)s1 (racemic) [Example 29, rac-2-(N-[4-amino-5-[6-(trifluoromethyl)pyridine-3-carbonyl]thiazol-2-yl]-4-fluoro-anilino)propanamide]	0.0584
CC(C(N)=O)N(c1ccc(F)cc1)c1nc(N)c(C(=O)c2ccc(NC(=O)OCc3ccccc3)cc2)s1 (single isomer, unassigned) [Example 169.1, Benzyl N-[4-[4-amino-2-(N-(2-amino-1-methyl-2-oxo-ethyl)-4-fluoro-anilino)thiazole-5-carbonyl]phenyl]carbamate]	0.003
CC(C(N)=O)N(c1ccc(Cl)c(F)c1)c1nc(N)c(C(=O)c2ccc(OC(F)F)cc2)s1 (single isomer, unassigned) [Example 48.2, 2-(N-[4-amino-5-[4-(difluoromethoxy)benzoyl]thiazol-2-yl]-4-chloro-3-fluoro-anilino)propanamide]	0.12
CC(C(N)=O)N(c1ccc(F)cc1)c1nc(N)c(C(=O)c2ccc(C#N)c(F)c2)s1 (racemic) [Example 21, rac-2-(N-[4-amino-5-(4-cyano-3-fluoro-benzoyl)thiazol-2-yl]-4-fluoro-anilino)propanamide]	0.142
CC(C(N)=O)N(c1cccnc1)c1nc(N)c(C(=O)c2ccccc2)s1 (single isomer, unassigned) [Example 79.2, 2-[(4-amino-5-benzoyl-thiazol-2-yl)-(3-pyridyl)amino]propanamide]	2.39
CC(C(N)=O)N(c1ccc(F)cc1)c1nc(N)c(C(=O)c2ccc(Cn3cccn3)cc2)s1 (racemic) [Example 179, rac-2-(N-[4-amino-5-[4-(pyrazol-1-ylmethyl)benzoyl]thiazol-2-yl]-4-fluoro-anilino)propanamide]	0.057
CC(C(N)=O)N(c1ccc(F)cc1)c1nc(N)c(C(=O)c2ccc(OCC(=O)N(C)CCc3ccccc3)cc2)s1 (racemic) [Example 127, rac-2-(N-[4-amino-5-[4-[2-[methyl(2-phenylethyl)amino]-2-oxo-ethoxy]benzoyl]thiazol-2-yl]-4-fluoro-anilino)propanamide]	0.0731
COc1ccc(N(c2nc(N)c(C(=O)c3ccccc3)s2)C(C)C(N)=O)cc1F (racemic) [Example 191, rac-2-(N-(4-amino-5-benzoyl-thiazol-2-yl)-3-fluoro-4-methoxy-anilino)propanamide]	0.356
COc1ccc(N(c2nc(N)c(C(=O)c3ccc(OC(F)F)cc3)s2)C(C)C(N)=O)cc1 (single isomer, unassigned) [Example 174.2, 2-(N-[4-amino-5-[4-(difluoromethoxy)benzoyl]thiazol-2-yl]-4-methoxy-anilino)propanamide]	3.79
CC(C(N)=O)N(c1ccc(C(F)F)nc1)c1nc(N)c(C(=O)c2ccccc2)s1 (racemic) [Example 231, rac-2-[(4-amino-5-benzoyl-thiazol-2-yl)-[6-(difluoromethyl)-3-pyridyl]amino]propanamide]	0.662
CC(C(N)=O)N(c1ccc(F)cc1)c1nc(N)c(C(=O)c2ccc(OCC(=O)NCc3ccc(F)cc3)cc2)s1 (racemic) [Example 97, rac-2-(N-[4-amino-5-[4-[2-[(4-fluorophenyl)methylamino]-2-oxo-ethoxy]benzoyl]thiazol-2-yl]-4-fluoro-anilino)propanamide]	0.0247
CC(C(N)=O)N(c1ccc(F)cc1)c1nc(N)c(C(=O)c2ccc(OCC(=O)Nc3cccc(C(N)=O)c3)cc2)s1 (racemic) [Example 107, rac-3-[[2-[4-[4-amino-2-(N-[2-amino-1-methyl-2-oxo-ethyl]-4-fluoro-anilino)thiazole-5-carbonyl]phenoxy]acetyl]amino]benzamide]	0.0773
CC(C(N)=O)N(c1ccc(Cl)cc1)c1nc(N)c(C(=O)c2ccc(F)cc2)s1 (single isomer, unassigned) [Example 37.2, 2-(N-[4-amino-5-(4-fluorobenzoyl)thiazol-2-yl]-4-chloro-anilino)propanamide]	0.00946
CC(C(N)=O)N(c1ccc(F)cc1)c1nc(N)c(C(=O)c2ccc(OCC(=O)Nc3ccc(F)cc3)cc2)s1 (racemic) [Example 122, rac-2-(N-[4-amino-5-[4-[2-(4-fluoroanilino)-2-oxo-ethoxy]benzoyl]thiazol-2-yl]-4-fluoro-anilino)propanamide]	0.00907
CC(C(N)=O)N(c1ccc(F)cc1)c1nc(N)c(C(=O)c2ccc(OCC(=O)N(C)Cc3ccco3)cc2)s1 (racemic) [Example 135, rac-2-(N-[4-amino-5-[4-[2-[2-furylmethyl(methyl)amino]-2-oxo-ethoxy]benzoyl]thiazol-2-yl]-4-fluoro-anilino)propanamide]	0.0495
CC(C(N)=O)N(c1ccc(F)cc1)c1nc(N)c(C(=O)c2ccc(N3CCCCC3)nc2)s1 (racemic) [Example 283, rac-2-(N-[4-amino-5-[6-(1-piperidyl)pyridine-3-carbonyl]thiazol-2-yl]-4-fluoro-anilino)propanamide]	0.036
CC(C(N)=O)N(c1ccc(F)cc1)c1nc(N)c(C(=O)c2ccc(NC(=O)OCc3ccccc3)nc2)s1 (racemic) [Example 256, rac-benzyl N-[5-[4-amino-2-(N-(2-amino-1-methyl-2-oxo-ethyl)-4-fluoro-anilino)thiazole-5-carbonyl]-2-pyridyl]carbamate]	0.009
CC(C(N)=O)N(c1ccc(F)cc1)c1nc(N)c(C(=O)c2ccc(N3CCOCC3)cc2)s1 (racemic) [Example 178, rac-2-(N-[4-amino-5-(4-morpholinobenzoyl)thiazol-2-yl]-4-fluoro-anilino)propanamide]	0.048
CC(C(N)=O)N(c1ccc(Cl)c(F)c1)c1nc(N)c(C(=O)c2ccc(OCc3ccccc3)cc2)s1 (single isomer, unassigned) [Example 166.2, 2-(N-[4-amino-5-(4-benzyloxybenzoyl)thiazol-2-yl]-4-chloro-3-fluoro-anilino)propanamide]	0.129
CC(C(N)=O)N(c1ccc(OC(F)(F)F)cc1)c1nc(N)c(C(=O)c2ccc(F)cc2)s1 (single isomer, unassigned) [Example 27.1, 2-[N-[4-amino-5-(4-fluorobenzoyl)thiazol-2-yl]-4-(trifluoromethoxy)anilino]propanamide]	8.65
CC(C(N)=O)N(c1ccc(F)c(F)c1)c1nc(N)c(C(=O)c2ccc(OC(F)F)nc2)s1 (racemic) [Example 163, rac-2-(N-[4-amino-5-[6-(difluoromethoxy)pyridine-3-carbonyl]thiazol-2-yl]-3,4-difluoro-anilino)propanamide]	0.009
COc1ccc(C(=O)c2sc(N(c3ccc(F)cc3)C(C)C(N)=O)nc2N)cn1 (racemic) [Example 14, rac-2-(N-[4-amino-5-(6-methoxypyridine-3-carbonyl)thiazol-2-yl]-4-fluoro-anilino)propanamide]	0.334
CC(C(N)=O)N(c1ccc(F)cc1)c1nc(N)c(C(=O)c2ccc([N+](=O)[O-])cc2)s1 (racemic) [Example 175, rac-2-(N-[4-amino-5-(4-nitrobenzoyl)thiazol-2-yl]-4-fluoro-anilino)propanamide]	0.02
CC(C(N)=O)N(c1ccc(Cl)cc1)c1nc(N)c(C(=O)c2ccc(F)cc2)s1 (single isomer, unassigned) [Example 37.1, 2-(N-[4-amino-5-(4-fluorobenzoyl)thiazol-2-yl]-4-chloro-anilino)propanamide]	2
Cc1ccc(CNC(=O)COc2ccc(C(=O)c3sc(N(c4ccc(F)cc4)C(C)C(N)=O)nc3N)cc2)cc1 (racemic) [Example 126, rac-2-(N-[4-amino-5-[4-[2-oxo-2-(p-tolylmethylamino)ethoxy]benzoyl]thiazol-2-yl]-4-fluoro-anilino)propanamide]	0.0288
CC(C(N)=O)N(c1ccc(F)cc1)c1nc(N)c(C(=O)c2ccc(C(=O)NC3CCCC3)cc2)s1 (racemic) [Example 267, rac-4-[4-amino-2-(N-(2-amino-1-methyl-2-oxo-ethyl)-4-fluoro-anilino)thiazole-5-carbonyl]-N-cyclopentyi-benzamide]	0.063
CC(C(N)=O)N(c1ccc(OC(F)(F)F)cc1)c1nc(N)c(C(=O)c2ccc(F)cc2)s1 (racemic) [Example 27, rac-2-[N-[4-amino-5-(4-fluorobenzoyl)thiazol-2-yl]-4-(trifluoromethoxy)anilino]propanamide]	0.0696
